Reference: US7265103B2, “Substituted amino isoxazoline derivatives and their use as anti-depressants” (Janssen Pharmaceutica NV., priority 2002, dated 2007)

molecular target: T1, hα2A receptor (Homo sapiens, UniProt P08913); assay: Radioligand binding experiment for α2A-adrenergic receptor ([3H]-raulwolscine); conditions: CHO cell membranes with human α2A receptor, [3H]raulwolscine 1 nM; read-out: pIC50 α2A (converted)
T1 construct: expressed in transfected cells; host or cells: CHO cells
T1 sequence (P08913 1-465): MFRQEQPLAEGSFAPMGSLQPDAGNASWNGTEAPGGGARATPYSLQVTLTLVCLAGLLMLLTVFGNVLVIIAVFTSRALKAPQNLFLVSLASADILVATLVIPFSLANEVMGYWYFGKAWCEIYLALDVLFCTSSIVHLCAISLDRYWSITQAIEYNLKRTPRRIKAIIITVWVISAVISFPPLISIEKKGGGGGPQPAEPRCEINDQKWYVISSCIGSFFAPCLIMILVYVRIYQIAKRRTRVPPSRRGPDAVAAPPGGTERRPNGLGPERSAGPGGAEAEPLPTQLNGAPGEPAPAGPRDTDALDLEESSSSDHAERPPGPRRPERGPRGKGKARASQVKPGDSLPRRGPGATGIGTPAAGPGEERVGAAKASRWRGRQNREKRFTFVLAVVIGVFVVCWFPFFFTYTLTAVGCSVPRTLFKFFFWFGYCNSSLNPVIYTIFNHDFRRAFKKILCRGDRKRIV
Experimental: (§1) The interaction of the compounds of Formula (I) with hα2-receptors and h5-HT-transporters was assessed in in vitro radioligand binding experiments. In general, a low concentration of a radioligand with a high binding affinity for a particular receptor or transporter is incubated with a sample of a tissue preparation enriched in a particular receptor or transporter or with a preparation of cells expressing cloned human receptors in a buffered medium. During the incubation, the radioligand binds to the receptor or transporter. When equilibrium of binding is reached, the receptor bound radioactivity is separated from the non-bound radioactivity, and the receptor- or transporter-bound activity is counted. The interaction of the test compounds with the receptor is assessed in competition binding experiments. Various concentrations of the test compound are added to the incubation mixture containing the receptor- or transporter preparation and the radioligand. The test compound in proportion to its binding affinity and its concentration inhibits binding of the radioligand. The radioligand used for hα2A, hα2B and hα2C receptor binding was [^3H]-raulwolscine and for the h5-HT transporter was [^3H]paroxetine.
(§2) CHO cells, stabile transfected with human adrenergic-α2A-, -α2B or α2C receptor cDNA, were cultured in Dulbecco's Modified Eagle's Medium (DMEM)/Nutrient mixture Ham's F12 (ratio 1:1)(Gibco, Gent-Belgium) supplemented with 10% heat inactivated fetal calf serum (Life Technologies, Merelbeke-Belgium) and antibiotics (100 IU/ml penicillin G, 100 μg/ml streptomycin sulphate, 110 μg/ml pyruvic acid and 100 μg/ml L-glutamine). One day before collection, cells were induced with 5 mM sodiumbutyrate. Upon 80-90% of confluence, cells were scraped in phosphate buffered saline without Ca^2+ and Mg^2+ and collected by centrifugation at 1500×g for 10 min. The cells were homogenised in Tris-HCl 50 mM using an Ultraturrax homogenizer and centrifuged for 10 min at 23,500×g. The pellet was washed once by resuspension and rehomogenization and the final pellet was resuspended in Tris-HCl, divided in 1 ml aliquots and stored at −70° C.
(§3) Membranes were thawed and re-homogenized in incubation buffer (glycylglycine 25 mM, pH 8.0). In a total volume of 500 μl, 2-10 μg protein was incubated with [^3H]raulwolscine (NET-722) (New England Nuclear, USA) (1 nM final concentration) with or without competitor for 60 min at 25° C. followed by rapid filtration over GF/B filter using a Filtermatel 96 harvester (Packard, Meriden, Conn.). Filters were rinsed extensively with ice-cold rinsing buffer (Tris-HCl 50 mM pH 7.4). Filter-bound radioactivity was determined by scintillation counting in a Topcount (Packard, Meriden, Conn.) and results were expressed as counts per minute (cpm). Non-specific binding was determined in the presence of 1 μM oxymetazoline for hα2A- and hα2B receptors and 1 μM spiroxatrine for hα2C receptors.
(§4) Data from assays in the presence of compound were calculated as a percentage of total binding measured in the absence of test compound. Inhibition curves, plotting percent of total binding versus the log value of the concentration of the test compound, were automatically generated, and sigmoidal inhibition curves were fitted using non-linear regression. The pIC50 values of test compounds were derived from individual curves.

IC50 [nM]	Structure (SMILES)
1.26	CC(=Cc1ccccc1)CN1CCN(CC2ON=C3c4ccc(N(C)CCO)cc4OCC32)CC1 (stereo not drawn) [Compound 31]
3.98	COc1cc2c(cc1N1CCN(C)CC1)OCC1C2=NOC1CN1CCN(CC(C)=Cc2cccc(F)c2)CC1 (stereo not drawn) [Compound 76]
63.1	CC(=Cc1ccc(F)cc1)CN1CCN(CC2ON=C3c4ccc(NC(C)C)cc4OCC32)CC1 (stereo not drawn) [Compound 129]
50.1	COc1cc2c(cc1N(C)CCO)OCC1C2=NOC1CN1CCN(CC(C)=Cc2ccc(F)cc2)CC1 (stereo not drawn) [Compound 39]
1.58	CC(=Cc1ccccc1)CN1CCN(CC2ON=C3c4ccc(NC(=O)C5CC5)cc4OCC32)CC1 (stereo not drawn) [Compound 51]
6.31	CCNc1ccc2c(c1)OCC1C2=NOC1CN1CCN(CC(C)=Cc2ccccc2)CC1 (stereo not drawn) [Compound 18]
79.4	CC(=Cc1ccc(F)cc1)CN1CCN(CC2ON=C3c4ccc(N(C)CCO)cc4OCC32)CC1 (stereo not drawn) [Compound 38]
6.31	CCN(CC)CCN(C)c1ccc2c(c1)OCC1C2=NOC1CN1CCN(CC(C)=Cc2ccc(F)cc2)CC1 (stereo not drawn) [Compound 25]
63.1	COc1cc2c(cc1NCC1CC1C)OCC1C2=NOC1CN1CCN(CC(C)=Cc2ccc(F)cc2)CC1 (stereo not drawn) [Compound 126]
3.98	COc1cc2c(cc1NC(=O)C1CC1)OCC1C2=NOC1CN1CCN(CC(C)=Cc2cccc(F)c2)CC1 (stereo not drawn) [Compound 53]
10	CC(=Cc1ccc(F)cc1)CN1CCN(CC2ON=C3c4ccc(N(C)CCN(C)C)cc4OCC32)CC1 (stereo not drawn) [Compound 23]
6.31	CC(=Cc1ccc(F)cc1)CN1CCN(CC2ON=C3c4ccc(NC(N)=O)cc4OCC32)CC1 (stereo not drawn) [Compound 137]
3.16	CC(=Cc1ccc(F)cc1)CN1CCN(CC2ON=C3c4ccc(NCCO)cc4OCC32)CC1 (stereo not drawn) [Compound 37]
39.8	COc1cc2c(cc1NC(=O)C1CCC1)OCC1C2=NOC1CN1CCN(CC(C)=Cc2ccc(F)cc2)CC1 (stereo not drawn) [Compound 115]
2.51	CC(=Cc1ccccc1)CN1CCN(CC2ON=C3c4ccc(N(C)Cc5ccccc5)cc4OCC32)CC1 (stereo not drawn) [Compound 47]

molecular target: T2, hα2C receptor (Homo sapiens, UniProt P18825); assay: Radioligand binding experiment for α2C-adrenergic receptor ([3H]-raulwolscine); conditions: CHO cell membranes with human α2C receptor, [3H]raulwolscine 1 nM; read-out: pIC50 α2C (converted)
T2 construct: expressed in transfected cells; host or cells: CHO cells
T2 sequence (P18825 1-462): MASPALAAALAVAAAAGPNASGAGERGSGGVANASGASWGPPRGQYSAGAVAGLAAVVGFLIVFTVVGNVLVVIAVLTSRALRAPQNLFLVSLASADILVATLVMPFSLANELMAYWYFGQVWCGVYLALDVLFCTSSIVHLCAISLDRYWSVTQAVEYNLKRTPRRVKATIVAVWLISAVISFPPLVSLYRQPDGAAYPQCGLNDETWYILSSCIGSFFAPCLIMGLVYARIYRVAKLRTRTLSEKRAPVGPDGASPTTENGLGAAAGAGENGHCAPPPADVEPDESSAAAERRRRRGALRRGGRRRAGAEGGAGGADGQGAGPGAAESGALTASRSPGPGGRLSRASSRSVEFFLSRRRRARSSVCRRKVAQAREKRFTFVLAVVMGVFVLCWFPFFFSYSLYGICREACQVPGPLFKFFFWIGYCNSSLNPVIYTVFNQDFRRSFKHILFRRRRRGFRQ
Experimental: as §1, §2, §3, §4

IC50 [nM]	Structure (SMILES)
1.26	CC(=Cc1ccccc1)CN1CCN(CC2ON=C3c4ccc(N(C)CCO)cc4OCC32)CC1 (stereo not drawn) [Compound 31]
0.794	COc1cc2c(cc1N1CCN(C)CC1)OCC1C2=NOC1CN1CCN(CC(C)=Cc2cccc(F)c2)CC1 (stereo not drawn) [Compound 76]
31.6	CC(=Cc1ccc(F)cc1)CN1CCN(CC2ON=C3c4ccc(NC(C)C)cc4OCC32)CC1 (stereo not drawn) [Compound 129]
10	COc1cc2c(cc1N(C)CCO)OCC1C2=NOC1CN1CCN(CC(C)=Cc2ccc(F)cc2)CC1 (stereo not drawn) [Compound 39]
1	CC(=Cc1ccccc1)CN1CCN(CC2ON=C3c4ccc(NC(=O)C5CC5)cc4OCC32)CC1 (stereo not drawn) [Compound 51]
1.26	CCNc1ccc2c(c1)OCC1C2=NOC1CN1CCN(CC(C)=Cc2ccccc2)CC1 (stereo not drawn) [Compound 18]
1.58	CC(=Cc1ccc(F)cc1)CN1CCN(CC2ON=C3c4ccc(N(C)CCO)cc4OCC32)CC1 (stereo not drawn) [Compound 38]
0.398	CCN(CC)CCN(C)c1ccc2c(c1)OCC1C2=NOC1CN1CCN(CC(C)=Cc2ccc(F)cc2)CC1 (stereo not drawn) [Compound 25]
126	COc1cc2c(cc1NCC1CC1C)OCC1C2=NOC1CN1CCN(CC(C)=Cc2ccc(F)cc2)CC1 (stereo not drawn) [Compound 126]
0.631	COc1cc2c(cc1NC(=O)C1CC1)OCC1C2=NOC1CN1CCN(CC(C)=Cc2cccc(F)c2)CC1 (stereo not drawn) [Compound 53]
2	CC(=Cc1ccc(F)cc1)CN1CCN(CC2ON=C3c4ccc(N(C)CCN(C)C)cc4OCC32)CC1 (stereo not drawn) [Compound 23]
10	CC(=Cc1ccc(F)cc1)CN1CCN(CC2ON=C3c4ccc(NC(N)=O)cc4OCC32)CC1 (stereo not drawn) [Compound 137]
5.01	CC(=Cc1ccc(F)cc1)CN1CCN(CC2ON=C3c4ccc(NCCO)cc4OCC32)CC1 (stereo not drawn) [Compound 37]
39.8	COc1cc2c(cc1NC(=O)C1CCC1)OCC1C2=NOC1CN1CCN(CC(C)=Cc2ccc(F)cc2)CC1 (stereo not drawn) [Compound 115]
3.16	CC(=Cc1ccccc1)CN1CCN(CC2ON=C3c4ccc(N(C)Cc5ccccc5)cc4OCC32)CC1 (stereo not drawn) [Compound 47]

molecular target: T3, h5-HT transporter (Homo sapiens, UniProt P31645); assay: Radioligand binding experiment for 5-HT transporter ([3H]paroxetine); conditions: human platelet membranes, [3H]paroxetine 0.5 nM
T3 construct: Human platelet membranes (Oceanix Biosciences Corporation, Hanover, Md., USA) were thawed; tissue Oceanix Biosciences Corporation; host or cells: human platelet membranes
Experimental: as §1
Human platelet membranes (Oceanix Biosciences Corporation, Hanover, Md., USA) were thawed, diluted in buffer (Tris-HCl 50 mM, 120 mM NaCl and 5 mM KCl) and quickly (max 3 s) homogenised with an Ultraturrax homogenizer. In a total volume of 250 μL, 50-100 μg protein was incubated with [^3H]paroxetine (NET-869) (New England Nuclear, USA) (0.5 nM final concentration) with or without competitor for 60 min at 25° C. Incubation was stopped by rapid filtration of the incubation mixture over GF/B filters, pre-wetted with 0.1% polyethyleneamine, using a Filtermatel 96 harvester (Packard, Meriden, Conn.). Filters were rinsed extensively with ice-cold buffer and radioactivity on the filters was counted in a Topcount liquid scintillation counter (Packard, Meriden, Conn.). Data were expressed as cpm. Imipramine (at 1 μM final concentration) was used to determine the non-specific binding.
as §4

T3 sequence (P31645 whole entry): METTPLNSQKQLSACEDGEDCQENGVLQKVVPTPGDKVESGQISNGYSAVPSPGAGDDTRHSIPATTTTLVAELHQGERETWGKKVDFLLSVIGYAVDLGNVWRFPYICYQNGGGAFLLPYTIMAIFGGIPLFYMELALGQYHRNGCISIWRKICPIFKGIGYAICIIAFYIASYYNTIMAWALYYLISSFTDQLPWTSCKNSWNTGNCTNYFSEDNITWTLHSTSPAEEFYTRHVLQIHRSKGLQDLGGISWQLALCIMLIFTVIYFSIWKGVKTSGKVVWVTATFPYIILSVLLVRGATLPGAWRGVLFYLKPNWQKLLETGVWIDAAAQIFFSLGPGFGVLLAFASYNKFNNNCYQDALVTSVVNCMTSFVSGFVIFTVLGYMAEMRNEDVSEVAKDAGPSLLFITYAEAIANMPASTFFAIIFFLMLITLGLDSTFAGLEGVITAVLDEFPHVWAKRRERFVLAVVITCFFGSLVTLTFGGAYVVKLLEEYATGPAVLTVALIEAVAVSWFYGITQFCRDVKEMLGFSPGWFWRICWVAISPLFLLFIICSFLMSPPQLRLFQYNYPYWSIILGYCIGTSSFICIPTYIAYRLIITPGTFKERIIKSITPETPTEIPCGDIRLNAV

IC50 [nM]	Structure (SMILES)
25.1	CC(=Cc1ccccc1)CN1CCN(CC2ON=C3c4ccc(N(C)CCO)cc4OCC32)CC1 (stereo not drawn) [Compound 31]
3.16	COc1cc2c(cc1N1CCN(C)CC1)OCC1C2=NOC1CN1CCN(CC(C)=Cc2cccc(F)c2)CC1 (stereo not drawn) [Compound 76]
158	CC(=Cc1ccc(F)cc1)CN1CCN(CC2ON=C3c4ccc(NC(C)C)cc4OCC32)CC1 (stereo not drawn) [Compound 129]
79.4	COc1cc2c(cc1N(C)CCO)OCC1C2=NOC1CN1CCN(CC(C)=Cc2ccc(F)cc2)CC1 (stereo not drawn) [Compound 39]
15.8	CC(=Cc1ccccc1)CN1CCN(CC2ON=C3c4ccc(NC(=O)C5CC5)cc4OCC32)CC1 (stereo not drawn) [Compound 51]
50.1	CCNc1ccc2c(c1)OCC1C2=NOC1CN1CCN(CC(C)=Cc2ccccc2)CC1 (stereo not drawn) [Compound 18]
12.6	CC(=Cc1ccc(F)cc1)CN1CCN(CC2ON=C3c4ccc(N(C)CCO)cc4OCC32)CC1 (stereo not drawn) [Compound 38]
7.94	CCN(CC)CCN(C)c1ccc2c(c1)OCC1C2=NOC1CN1CCN(CC(C)=Cc2ccc(F)cc2)CC1 (stereo not drawn) [Compound 25]
126	COc1cc2c(cc1NCC1CC1C)OCC1C2=NOC1CN1CCN(CC(C)=Cc2ccc(F)cc2)CC1 (stereo not drawn) [Compound 126]
10	COc1cc2c(cc1NC(=O)C1CC1)OCC1C2=NOC1CN1CCN(CC(C)=Cc2cccc(F)c2)CC1 (stereo not drawn) [Compound 53]
5.01	CC(=Cc1ccc(F)cc1)CN1CCN(CC2ON=C3c4ccc(N(C)CCN(C)C)cc4OCC32)CC1 (stereo not drawn) [Compound 23]
20	CC(=Cc1ccc(F)cc1)CN1CCN(CC2ON=C3c4ccc(NC(N)=O)cc4OCC32)CC1 (stereo not drawn) [Compound 137]
63.1	CC(=Cc1ccc(F)cc1)CN1CCN(CC2ON=C3c4ccc(NCCO)cc4OCC32)CC1 (stereo not drawn) [Compound 37]
25.1	COc1cc2c(cc1NC(=O)C1CCC1)OCC1C2=NOC1CN1CCN(CC(C)=Cc2ccc(F)cc2)CC1 (stereo not drawn) [Compound 115]
50.1	CC(=Cc1ccccc1)CN1CCN(CC2ON=C3c4ccc(N(C)Cc5ccccc5)cc4OCC32)CC1 (stereo not drawn) [Compound 47]
